Values quoted from earlier work, collected in PubChem BioAssay AID1259409 (Chemical Carcinogenesis Research Information System (CCRIS), 2018).
Where “and” joins values, the source holds several entries; their conditions need not be identical. Equal values may be shown once. Where a SMILES comes first, the peptide text is derived from it. The star is where a group is joined. Leuψ(CH2N)ThzNH2 = CC(C)C[C@@H](CN1CSC[C@H]1C(N)=O)N*; Hydrocinnamoyl = O=C(CCc1ccccc1)*

System: rodent chemically induced tumor inhibition, incidence and multiplicity
Experiment: CCRIS tumor inhibitor studies

C[C@]12CCC(=O)C=C1CC[C@@H]1[C@@H]2CC[C@@]2(C)[C@H]1CC[C@]2(C)O
tumour outcome (control, treated, inhibition, significance) (Carcinogen: N-BIS(2-HYDROXYPROPYL)NITROSAMINE, 53609-64-6, Dose [Inhibitor]: 0.03% IN DIET FOR 28 WK BEGINNING POST CARCINOGEN DOSE (STUDY DURATION: 30 WK), Route [Inhibitor]: ORAL, Species: RAT, Strain/Sex: WISTAR/MALE, Target Tissue: Type of Lesion: THYROID: ADENOMA, Dose [Carcinogen]: 210 MG/100 G 1/WK FOR 2 WK, Promoter: NONE USED): 9/13 (69%), 2/15 (13%), 81%, p<0.05 | tumour outcome (control, treated, inhibition, significance) (Carcinogen: N-BIS(2-HYDROXYPROPYL)NITROSAMINE, 53609-64-6, Dose [Inhibitor]: 0.03% IN DIET FOR 28 WK BEGINNING POST CARCINOGEN DOSE (STUDY DURATION: 30 WK), Route [Inhibitor]: ORAL, Species: RAT, Strain/Sex: WISTAR/MALE, Target Tissue: Type of Lesion: THYROID: CARCINOMA, Dose [Carcinogen]: 210 MG/100 G 1/WK FOR 2 WK, Promoter: NONE USED): 2/13 (15%), 2/15 (13%), 13%, not calculated | tumour outcome (control, treated, inhibition, significance) (Carcinogen: N-BIS(2-HYDROXYPROPYL)NITROSAMINE, 53609-64-6, Dose [Inhibitor]: 0.15% IN DIET FOR 28 WK BEGINNING POST CARCINOGEN DOSE (STUDY DURATION: 30 WK), Route [Inhibitor]: ORAL, Species: RAT, Strain/Sex: WISTAR/MALE, Target Tissue: Type of Lesion: THYROID: ADENOMA, Dose [Carcinogen]: 210 MG/100 G 1/WK FOR 2 WK, Promoter: NONE USED): 9/13 (69%), 0/15 (0%), 100%, p<0.05

CC(C)C[C@@H](CN1CSC[C@H]1C(N)=O)NC(=O)[C@H](Cc1cnc[nH]1)NC(=O)CNC(=O)[C@@H](NC(=O)[C@H](C)NC(=O)[C@H](Cc1c[nH]c2ccccc12)NC(=O)[C@H](CCC(N)=O)NC(=O)CCc1ccccc1)C(C)C (Hydrocinnamoyl-QWAVGH-{Leuψ(CH2N)ThzNH2})
tumour outcome (control, treated, inhibition, significance) (Carcinogen: N-NITROSOBIS(2-OXOPROPYL)AMINE, 60599-38-4, Dose [Inhibitor]: 0, 20 UG/D FROM OSMOTIC PUMP FOR 2 MO, Route [Inhibitor]: SUBCUTANEOUS IMPLANT, Species: HAMSTER, Strain/Sex: SYRIAN/FEMALE, Target Tissue: Type of Lesion: PANCREAS: ADENOCARCINOMA, Promoter: NONE USED): 10/11 (91%), 7/11 (64%), 30%, not calculated | tumour outcome (control, treated, inhibition, significance) (Carcinogen: N-NITROSOBIS(2-OXOPROPYL)AMINE, 60599-38-4, Dose [Inhibitor]: 0, 30 UG/D FOR 2 MO, Route [Inhibitor]: SUBCUTANEOUS, Species: HAMSTER, Strain/Sex: SYRIAN/FEMALE, Target Tissue: Type of Lesion: PANCREAS: ADENOCARCINOMA, Promoter: NONE USED): 11/13 (85%), 12/13 (92%), -8%, not calculated

CC(C)(C)c1cc(C(C)(C)C)c(O)cc1O
tumour outcome (control, treated, inhibition, significance) (Carcinogen: BENZO[A]PYRENE, 50-32-8, Dose [Inhibitor]: 0.03 MMOL/G OF DIET DAILY STARTING 7 D BEFORE AND CONTINUING THROUGH 3 D AFTER CARCINOGEN TREATMENT FOLLOWED BY OBSERVAT, Route [Inhibitor]: ORAL, Species: MOUSE, Strain/Sex: ICR/FEMALE, Target Tissue: Type of Lesion: FORESTOMACH: NEOPLASM, Dose [Carcinogen]: 1 MG IN 0.2 ML CORN OIL 2/WK FOR 4 WK, Promoter: NONE USED): 94%, 100%, -6%, not significant

CCOC(=O)Oc1ccc(/C=C/C=C/C(=O)NCCN2CCC(OC(c3ccccc3)c3ccccc3)CC2)cc1OC
tumour outcome (control, treated, inhibition, significance) (Carcinogen: 7,12-DIMETHYLBENZ[A]ANTHRACENE, 57-97-6, Dose [Inhibitor]: 0, 30 MG/KG IN 5% TWEEN 80 ADMINISTERED 30 MIN PRIOR TO EACH PROMOTER DOSE 2/WK FOR 22 WK (STUDY DURATION: 25 WK), Route [Inhibitor]: ORAL, Species: MOUSE, Strain/Sex: CD-1/FEMALE, Target Tissue: Type of Lesion: SKIN: TUMOR, Dose [Carcinogen]: 200 NMOL ONCE, Promoter: 12-O-TETRADECANOYL-13-ACETATE, 16561-29-8): 100%, 55%, 45%, p<0.05 | tumour outcome (control, treated, inhibition, significance) (Carcinogen: 7,12-DIMETHYLBENZ[A]ANTHRACENE, 57-97-6, Dose [Inhibitor]: 0, 30 MG/KG IN 5% TWEEN 80 ADMINISTERED 30 MIN PRIOR TO EACH PROMOTER DOSE 2/WK FOR 22 WK (STUDY DURATION: 25 WK), Route [Inhibitor]: ORAL, Species: MOUSE, Strain/Sex: CD-1/FEMALE, Target Tissue: Type of Lesion: SKIN: TUMOR, Dose [Carcinogen]: 200 NMOL ONCE, Promoter: ANTHRALIN, 1143-38-0): 92%, 35%, 62%, p<0.05 | tumour outcome (control, treated, inhibition, significance) (Carcinogen: BENZO[A]PYRENE, 50-32-8, Dose [Inhibitor]: 0, 30 MG/KG IN 5% TWEEN 80 1/WK FOR 22 WK ADMINISTERED 30 MIN PRIOR TO EACH CARCINOGEN DOSE (STUDY DURATION: 22 WK), Route [Inhibitor]: ORAL, Species: MOUSE, Strain/Sex: CD-1/FEMALE, Target Tissue: Type of Lesion: SKIN: TUMOR, Dose [Carcinogen]: 200 NMOL 1/WK FOR 22 WK, Promoter: NONE USED): 100%, 50%, 50%, p<0.05

CS(=O)(=O)Nc1ccc([N+](=O)[O-])cc1OC1CCCCC1
tumour outcome (control, treated, inhibition, significance) (Carcinogen: 4-METHYLNITROSAMINO)-1-(3-PYRIDYL)-1-BUTANONE, 64091-91-4, Dose [Inhibitor]: 0, 7 MMOL/KG BW/D IN DIET FOR DURATION OF STUDY BEGINNING 2 WK PRIOR TO CARCINOGEN TREATMENT (STUDY DURATION: 25 WK), Route [Inhibitor]: ORAL, Species: MOUSE, Strain/Sex: STRAIN-A/FEMALE, Target Tissue: Type of Lesion: LUNG: TUMOR, Dose [Carcinogen]: 2.2 MMOL/KG BW (TOTAL DOSE) ADMINISTERED IN DRINKING WATER FOR 7 WK, Promoter: NONE USED): 29/29 (100%), 25/25 (100%), 0%, not significant

CC(C)(C)N=C=O
tumour outcome (control, treated, inhibition, significance) (Carcinogen: 7,12-DIMETHYLBENZ(A)ANTHRACENE, 57-97-6, Dose [Inhibitor]: 0.013 MMOL/G IN DIET BEGINNING 1 WK AFTER CARCINOGEN ADMINISTRATION (STUDY DURATION: 23 WK), Route [Inhibitor]: ORAL, Species: RAT, Strain/Sex: SPRAGUE-DAWLEY/FEMALE, Target Tissue: Type of Lesion: MAMMARY GLAND: TUMOR, Dose [Carcinogen]: 12 MG DMBA IN 1.0 ML OLIVE OIL ONCE, Promoter: NONE USED): 100%, 50%, 50%, p<0.001

COc1cc(CC(C)C(C)Cc2ccc(O)c(OC)c2)ccc1O (centres undefined)
tumour outcome (control, treated, inhibition, significance) (Carcinogen: 2,2'-DIHYDROXY-DI-N-PROPYLNITROSAMINE, 53609-64-6, N-ETHYL-N-HYDROXYETHYLNITROSAMINE, 13147-25-6, 3,2'-DIMETHYL-1,4-, Carcinogen: 2,2'-DIHYDROXY-DI-N-PROPYLNITROSAMINE, 53609-64-6, N-ETHYL-N-HYDROXYETHYLNITROSAMINE, 13147-25-6, 3,2'-DIMETHYL-1,4-, Dose [Inhibitor]: 0, 1% IN DIET FOR 4 WK BEGINNING 1 D PRIOR TO FIRST CARCINOGEN DOSE (STUDY DURATION: 36 WK), Route [Inhibitor]: ORAL, Species: RAT, Strain/Sex: F344/MALE, Target Tissue: Type of Lesion: KIDNEY: ADENOMA, Dose [Carcinogen]: 1000 MG/KG BW DHPN TWICE, 1500 MG/KG EHEN TWICE, 75 MG/KG BW DMAB 3 TIMES, SEQUENTIALLY OVER 3 WK, Promoter: NONE USED): 6/10 (60%), 5/12 (42%), 30%, not significant | tumour outcome (control, treated, inhibition, significance) (Carcinogen: 2,2'-DIHYDROXY-DI-N-PROPYLNITROSAMINE, 53609-64-6, N-ETHYL-N-HYDROXYETHYLNITROSAMINE, 13147-25-6, 3,2'-DIMETHYL-1,4-, Carcinogen: 2,2'-DIHYDROXY-DI-N-PROPYLNITROSAMINE, 53609-64-6, N-ETHYL-N-HYDROXYETHYLNITROSAMINE, 13147-25-6, 3,2'-DIMETHYL-1,4-, Dose [Inhibitor]: 0, 1% IN DIET FOR 4 WK BEGINNING 1 D PRIOR TO FIRST CARCINOGEN DOSE (STUDY DURATION: 36 WK), Route [Inhibitor]: ORAL, Species: RAT, Strain/Sex: F344/MALE, Target Tissue: Type of Lesion: LUNG: ADENOMA, Dose [Carcinogen]: 1000 MG/KG BW DHPN TWICE, 1500 MG/KG EHEN TWICE, 75 MG/KG BW DMAB 3 TIMES, SEQUENTIALLY OVER 3 WK, Promoter: NONE USED): 5/10 (50%), 6/12 (50%), 0%, not significant

CC1=CCC(C(C)(C)O)CC1O (centres undefined)
tumour outcome (control, treated, inhibition, significance) (Carcinogen: 7,12-DIMETHYLBENZ[A]ANTHRACENE, 57-97-6, Dose [Inhibitor]: 0, 1% IN DIET FOR 3 WK BEGINNING 2 WK PRIOR TO CARCINOGEN DOSE (STUDY DURATION: 20 WK), Route [Inhibitor]: ORAL, Species: RAT, Strain/Sex: WISTAR/FEMALE, Target Tissue: Type of Lesion: MAMMARY GLAND: CARCINOMA, Dose [Carcinogen]: 50 MG/KG IN SESAME OIL ONCE, Promoter: NONE USED): 80%, 52%, 35%, not calculated and 98%, 84%, 14%, not significant
